In this test the test system is Artemia salina. Briefly: Cytotoxicity against brine shrimp. Format: functional, organism-based.
`CC1=NN(c2ccc(Br)cc2Br)C(=O)/C1=N\NC(N)=S` came in with an IC50 of 36 ppm.

Consider `CC1=NN(c2ccc(Br)cc2Br)C(=O)C1=O`, for which the IC50 is 36 ppm.

Turning to `CC(=O)NNC1=NN(C(C)=O)C2(O1)C(=O)N(c1ccc(Br)cc1Br)N=C2C` (centres undefined), the IC50 is recorded as 20 ppm.

Compound `CC(=O)NC1=NN(C(C)=O)C2(S1)C(=O)N(c1ccc(Br)cc1Br)N=C2C` (centres undefined) came in with an IC50 of 19.5 ppm.
